From patent publication US10336732B2, “1-heterocyclyl isochromanyl compounds and analogs for treating CNS disorders” (Sunovion Pharmaceuticals Inc., priority 2015, dated 2019)

Each molecule was assayed on mice (assay: Neuropharmacological assay (SmartCube), behavioral signature of compound-treated mice). Details: i.p. 15 min before behavioral test, most efficacious dose(s) of 3 doses.
Format: in vivo
Outline: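 Read-out is an automated video-based behavioral signature, scored as per-class probabilities (e.g., anxiolytic, antidepressant) against reference compounds. Dosing was i.p. at three doses, 15 min pre-test, in NMP, polyethylene glycol and propylene glycol. Values shown are from the most efficacious dose(s).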

| SMILES | AD: ADHD (probability that behavioral signature matches class) | AG: analgesic (probability that behavioral signature matches class) | AX: anxiolytic (probability that behavioral signature matches class) | CE: cognitive enhancer (probability that behavioral signature matches class) | DP: anti-depressant (probability that behavioral signature matches class) | HA: hallucinogen (probability that behavioral signature matches class) | MS: mood stabilizer (probability that behavioral signature matches class) | PS: anti-psychotic (probability that behavioral signature matches class) | SD: sedative hypnotic (probability that behavioral signature matches class) | UN: uncharacterized CNS activity (probability that behavioral signature matches class) |
| --- | --- | --- | --- | --- | --- | --- | --- | --- | --- | --- |
| C[C@@]1([C@H]2CCCN2)OCc2cc(F)ccc21 [Compound I-124, (R)-2-((R)-5-fluoro-1-methyl-1,3-dihydroisobenzofuran-1-yl)pyrrolidine] | + (LOQ ≤ + <5%) | + (LOQ ≤ + <5%) | + (LOQ ≤ + <5%) | + (LOQ ≤ + <5%) | + (LOQ ≤ + <5%) | + (LOQ ≤ + <5%) | + (LOQ ≤ + <5%) | + (LOQ ≤ + <5%) | + (LOQ ≤ + <5%) | + (LOQ ≤ + <5%) |
| C[C@]1([C@H]2CCCN2)OCc2cc(F)ccc21 [Compound I-125, (R)-2-((S)-5-fluoro-1-methyl-1,3-dihydroisobenzofuran-1-yl)pyrrolidine] | + (LOQ ≤ + <5%) | ++ (5% ≤ ++ <25%) | ++ (5% ≤ ++ <25%) | ++ (5% ≤ ++ <25%) | ++++ (50% ≤ ++++) | + (LOQ ≤ + <5%) | + (LOQ ≤ + <5%) | + (LOQ ≤ + <5%) | ++ (5% ≤ ++ <25%) | + (LOQ ≤ + <5%) |
| Fc1ccc2c(c1)CO[C@@H]2[C@@H]1CCN1 [Compound I-126, (S)-2-((S)-5-fluoro-1,3-dihydroisobenzofuran-1-yl)azetidine] | + (LOQ ≤ + <5%) | ++ (5% ≤ ++ <25%) | ++ (5% ≤ ++ <25%) | ++ (5% ≤ ++ <25%) | +++ (25% ≤ +++ <50%) | + (LOQ ≤ + <5%) | + (LOQ ≤ + <5%) | +++ (25% ≤ +++ <50%) | ++ (5% ≤ ++ <25%) | ++ (5% ≤ ++ <25%) |
| Fc1ccc2c(c1)CO[C@@H]2[C@H]1CCN1 [Compound I-127, (R)-2-((S)-5-fluoro-1,3-dihydroisobenzofuran-1-yl)azetidine] | + (LOQ ≤ + <5%) | ++ (5% ≤ ++ <25%) | ++ (5% ≤ ++ <25%) | ++ (5% ≤ ++ <25%) | ++ (5% ≤ ++ <25%) | + (LOQ ≤ + <5%) | + (LOQ ≤ + <5%) | ++ (5% ≤ ++ <25%) | + (LOQ ≤ + <5%) | ++ (5% ≤ ++ <25%) |
| Fc1ccc2c(c1)CO[C@H]2[C@H]1CCN1 [Compound I-128, (R)-2-((R)-5-fluoro-1,3-dihydroisobenzofuran-1-yl)azetidine] | + (LOQ ≤ + <5%) | ++ (5% ≤ ++ <25%) | ++ (5% ≤ ++ <25%) | + (LOQ ≤ + <5%) | ++ (5% ≤ ++ <25%) | + (LOQ ≤ + <5%) | + (LOQ ≤ + <5%) | ++++ (50% ≤ ++++) | + (LOQ ≤ + <5%) | + (LOQ ≤ + <5%) |
| OC1CO[C@@H]([C@@H]2CCCN2)c2ccc(F)cc21 (stereo partly drawn) [Compound I-134, (1R)-6-fluoro-1-((S)-pyrrolidin-2-yl)isochroman-4-ol] | + (LOQ ≤ + <5%) | + (LOQ ≤ + <5%) | ++ (5% ≤ ++ <25%) | + (LOQ ≤ + <5%) | + (LOQ ≤ + <5%) | + (LOQ ≤ + <5%) | + (LOQ ≤ + <5%) | + (LOQ ≤ + <5%) | + (LOQ ≤ + <5%) | + (LOQ ≤ + <5%) |
| Fc1ccc2c(c1)[C@H](F)CO[C@H]2[C@@H]1CCN1 [Compound I-135, (2S)-2-((1R)-4,6-difluoroisochroman-1-yl)azetidine] | + (LOQ ≤ + <5%) | ++ (5% ≤ ++ <25%) | ++ (5% ≤ ++ <25%) | ++ (5% ≤ ++ <25%) | ++ (5% ≤ ++ <25%) | + (LOQ ≤ + <5%) | ++ (5% ≤ ++ <25%) | +++ (25% ≤ +++ <50%) | ++ (5% ≤ ++ <25%) | ++ (5% ≤ ++ <25%) |
| Fc1ccc2c(c1)[C@H](F)CO[C@H]2[C@@H]1CCCN1 [Compound I-137, (S)-2-((1R,4S)-4,6-difluoroisochroman-1-yl)pyrrolidine] | + (LOQ ≤ + <5%) | ++ (5% ≤ ++ <25%) | ++ (5% ≤ ++ <25%) | ++ (5% ≤ ++ <25%) | ++ (5% ≤ ++ <25%) | + (LOQ ≤ + <5%) | ++ (5% ≤ ++ <25%) | ++++ (50% ≤ ++++) | ++ (5% ≤ ++ <25%) | ++ (5% ≤ ++ <25%) |
| Fc1ccc2c(c1)[C@@H](F)CO[C@H]2[C@@H]1CCCN1 [Compound I-138, (S)-2-((1R,4R)-4,6-difluoroisochroman-1-yl)pyrrolidine] | + (LOQ ≤ + <5%) | + (LOQ ≤ + <5%) | ++ (5% ≤ ++ <25%) | + (LOQ ≤ + <5%) | ++ (5% ≤ ++ <25%) | + (LOQ ≤ + <5%) | + (LOQ ≤ + <5%) | +++ (25% ≤ +++ <50%) | + (LOQ ≤ + <5%) | ++ (5% ≤ ++ <25%) |

Same assay, conditions: i.p. 15 min before behavioral test, most efficacious dose(s) of 3 doses

| SMILES | XG: anxiogenic (probability that behavioral signature matches class) |
| --- | --- |
| C[C@@]1([C@H]2CCCN2)OCc2cc(F)ccc21 [Compound I-124, (R)-2-((R)-5-fluoro-1-methyl-1,3-dihydroisobenzofuran-1-yl)pyrrolidine] | + (LOQ ≤ + <5%) |
| C[C@]1([C@H]2CCCN2)OCc2cc(F)ccc21 [Compound I-125, (R)-2-((S)-5-fluoro-1-methyl-1,3-dihydroisobenzofuran-1-yl)pyrrolidine] | + (LOQ ≤ + <5%) |
| Fc1ccc2c(c1)CO[C@@H]2[C@@H]1CCN1 [Compound I-126, (S)-2-((S)-5-fluoro-1,3-dihydroisobenzofuran-1-yl)azetidine] | + (LOQ ≤ + <5%) |
| Fc1ccc2c(c1)CO[C@@H]2[C@H]1CCN1 [Compound I-127, (R)-2-((S)-5-fluoro-1,3-dihydroisobenzofuran-1-yl)azetidine] | + (LOQ ≤ + <5%) |
| Fc1ccc2c(c1)CO[C@H]2[C@H]1CCN1 [Compound I-128, (R)-2-((R)-5-fluoro-1,3-dihydroisobenzofuran-1-yl)azetidine] | + (LOQ ≤ + <5%) |
| OC1CO[C@@H]([C@@H]2CCCN2)c2ccc(F)cc21 (stereo partly drawn) [Compound I-134, (1R)-6-fluoro-1-((S)-pyrrolidin-2-yl)isochroman-4-ol] | + (LOQ ≤ + <5%) |
| Fc1ccc2c(c1)[C@H](F)CO[C@H]2[C@@H]1CCN1 [Compound I-135, (2S)-2-((1R)-4,6-difluoroisochroman-1-yl)azetidine] | + (LOQ ≤ + <5%) |
| Fc1ccc2c(c1)[C@H](F)CO[C@H]2[C@@H]1CCCN1 [Compound I-137, (S)-2-((1R,4S)-4,6-difluoroisochroman-1-yl)pyrrolidine] | + (LOQ ≤ + <5%) |
| Fc1ccc2c(c1)[C@@H](F)CO[C@H]2[C@@H]1CCCN1 [Compound I-138, (S)-2-((1R,4R)-4,6-difluoroisochroman-1-yl)pyrrolidine] | + (LOQ ≤ + <5%) |
